According to patent US12102685B2, “Immodulator peptides covalently modified with small molecules” (priority 2020, dated 2024):
Marks after values point to notes of the source that are not given here. Peptide text beside a SMILES is read from it.

What was measured:
[1] = target: T1, AA111-228 DNA-binding domain of RXR-alpha (RXRa-DBD) (Homo sapiens, UniProt P19793); test: Binding to RXRa-DBD (x3A); conditions: 1 ug/well RXRa-DBD, 800 ng/well SA488-labelled peptide; background subtracted
T1 construct: purchased Abcam, Cambridge, MA
T1 sequence (P19793 111-228): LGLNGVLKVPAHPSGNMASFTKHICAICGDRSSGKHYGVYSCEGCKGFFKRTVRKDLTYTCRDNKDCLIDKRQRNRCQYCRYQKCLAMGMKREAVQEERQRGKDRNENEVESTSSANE
Procedure: Binding of immodulator peptides to AA111-228 DNA-binding domain of RXR-alpha (RXRa-DBD). 1 ug/well recombinant RXRa-DBD (Abcam, Cambridge, MA) was adsorbed to wells of a 96-well plate for 60 minutes at RT, then blocked with 200 uL 1% BSA in PBS buffer overnight. Plate was washed and 800 ng/well Streptavidin-Alexa 488 conjugate (SA488)-labelled IM peptide was added. The plate was incubated for 60 min at room temperature, washed and counted in a standard fluorometer (excitation/emission 485/525 nm). Background (buffer alone) was subtracted.

[2] = Alexa488-SA-labelled IM1-IM6 binding to metal-charged NTA-coated plate (x2B d); conditions: no peptide background = 1.0
Procedure: NTA-metal-affinity fluorescence assay was performed using 96-well NTA-metal-coated plates readily available from commercial sources such as Qiagen (Germantown, MD). NTA was charged with ferrous or ferric iron, zinc, copper, calcium, vanadium, ruthenium, cobalt, titanium, manganese or other metals. 400 ng of FITC-labeled immodulator peptide (or biotinylated immodulator peptide complexed to Alexa-488-labeled streptavidin) in PBS buffer was added per plate. After incubation at room temperature for 60 minutes, excess peptide was washed off and peptide was detected by measuring fluorescence (excitation 490 nm, emmission 525 nm) in a fluorometer. • (a) Using FITC-labeled IM3 peptide (1 ug/well) in the fluorescent binding assay: • EDTA-treated control: 2,251±1,186 • Ferrous iron: 170,441±11,264 (p<0.001)* • Copper: 13,644±5566 (p<0.05)* • Calcium: 48,822±11,990 (p<0.01)* • *p values are relative to EDTA-treated control • (b) Competition binding assay to ferrous iron, calcium, copper and zinc-charged NTA-coated plates using FITC-labeled IM3 peptide (0.5 uM) and 8× (4 uM) unlabelled competitor peptides IM3N1, IM3N2 (*all comparisons to PBS control are p<0.01); # fluorescent value of binding to […] was set at 100.
Ferrous iron # (100±2.6*); Control (no metal): 6.4±3.1; Ferric iron: 94.1±6.6*; Calcium: 47.6±3.7*; Vanadium: 53.9±5.5*; Manganese: 54.4±11.2*; Cobalt: 25.4±2.3*; Copper: 58.4±6.4*; Zinc: 71.4±8.3*; Ruthenium: 67.8±8.3*; (d) Alexa488-SA-labelled immodulator peptide IM1, IM2, IM3, IM4, IM5, IM6 (400 ng/well) were bound to NTA-coated plate charged with the indicated metals: # background (no peptide) control set to 1.0;*p<0.05, **p<0.01 vs “no peptide”

[3] = Iron binding of separately labeled peptides (x2E e); conditions: each peptide labeled separately; IM3 = 100; ferric iron
Procedure: Experiments were conducted by the procedure described above. Ferric iron-charged NTA-coated 96-well plates were used as described. 1 ug/well immodulator peptide complexed to Alexa-488-labeled streptavidin in PBS buffer was added (60 min at room temperature). The plate was washed and counted in a standard fluorometer (excitation/emission: 485/525 nm). The results (fluorescence) show improved iron-binding by the three peptides extended C-terminally by the AVD, (dA)VD, and FVS tripeptides. **p<0.01 vs IM3 control IM3: 200±29; IM4: 45±37**; IM5: 130±77; IM3AVD: 434±29**; IM3dAVD: 418±28**; IM3FVS: 371±33** • (c) Competition assay. The same procedure was used as the preceding experiment, except that 375 ng/well labeled IM3 peptide was used, plus 10× of the indicated unlabeled peptide. ‘No competing peptide’ control value was set to 100. *p<0.05 vs “no peptide” control Competing Peptide/Fluorescence • None: 100±38; IM4: 125±26; IM3: 63±27*; IM5: 40±14*; IM3AVD: 10±28* • (d) Competition assay. The same procedure was used as the preceding experiment, except that labeled IM3AVD peptide was used. **p<0.01 vs “no competing peptide” control • None: 100±9; IM4: 144±44; IM3: 35±16**; IM5: 30±19**; IM3AVD: 9±19** • (e) The same procedure was used as the preceding experiment, except that each peptide was labeled with Alexa-488-labeled streptavidin in PBS buffer and used separately. Binding to IM3 was set to =100. *p<0.05, **p<0.01 vs IM3 control. (Labeled Peptide/Fluorescence) IM1: 1.8±0.4**; IM2: 3.0±1.8**; IM3: 100.0±16.8; IM4: 7.2±1.7*; IM5: 86.7±6.4; IM6: 85.9±14.9; IM3AVD:137.7±11.8*; IM3dAVD:147.4±22.9*; IM3FVS: 101.5±10.5.

A375 cells = test: A375 cell viability, CellTiterGlo (x10A); type: cell-based; conditions: 72 hours
Procedure: Immune modulation functions of immodulator peptides have great potential untility in the field of cancer. A375 cell line was obtained from American Type Culture Collection (ATCC). They were grown in a T-75 flask in DMEM Medium containing 10% fetal bovine serum and penicillin-streptomycin at 37° C. in a humidified, 5% CO2 incubator. Cells ([…], 2,000 cells/well) were plated in a 96-well plate and incubated overnight at 37° C. in a humidified, 5% CO2 incubator. Next day, […] of compounds were added (quadruplicate wells). After 72 hour incubation with the compound, cell viability was measured in a luminometer after the addition of […] CellTiterGlo reagent (Promega Inc, Madison, WI) as recommended by the manufacturer.
Experiment x10A. Anti-cancer activity of immodulator peptides on A375 cells. A 96-well plate was seeded with 2,000 A375 cells per well in DMEM medium containing 10% FBS and PenStrep. After 24 hrs at 37 deg C., compounds and peptides were added (each treatment done in quadruplicate). After a further 72 hours incubation, 100 uL/well of CTG assay reagent purchased from Promega Inc. (Madison, WI) was added. Plate was read after 10 minutes, as recommended by the manufacturer. Peptides were added at 2 uM. The results of this experiment are shown below, expressed as percent survival ofA375 cells.

SMILES	fluorescence [1]	fluorescence ([2]; Calcium)	fluorescence ([2]; Copper)	fluorescence ([2]; Ferrous iron, 400 ng/well)	fluorescence ([2]; Zinc)	fluorescence of labeled peptide [3]	percent survival of A375 cells (A375 cells; peptide 2 uM, Buffer) [%]	percent survival of A375 cells (A375 cells; peptide 2 uM + Kin1400 4 uM (RIG-I agonist))
CC[C@H](C)[C@H](NC(=O)CNC(=O)[C@H](CCCNC(=N)N)NC(=O)[C@H](CCCCN)NC(=O)[C@H](CCCNC(=N)N)NC(=O)CNC(=O)[C@H](CCCNC(=N)N)NC(=O)[C@H](CO)NC(=O)[C@@H]1CCCN1C(=O)[C@H](CCCCN)NC(=O)[C@H](CS)NC(=O)[C@H](CCC(N)=O)NC(=O)[C@H](CCCCN)NC(=O)[C@H](CCCNC(=N)N)NC(=O)[C@H](CCCCN)NC(=O)[C@H](Cc1ccc(O)cc1)NC(=O)[C@H](Cc1ccccc1)NC(=O)CNC(=O)[C@H](CCCCN)NC(=O)[C@@H](N)CCCNC(=N)N)C(=O)N[C@@H](CS)C(=O)N[C@@H](Cc1c[nH]c2ccccc12)C(=O)O [IM5] (H-RKGFYKRKQCKPSRGRKRGICW-OH; N-terminus and C-terminus assumed)	6,802±336	23.4 ± 0.8**	5.6 ± 0.1**	20.5 ± 1.5**	23.6 ± 0.1**	86.7±6.4		
CC(C)C[C@H](NC(=O)[C@H](C)NC(=O)[C@@H]1CCCN1C(=O)[C@H](Cc1c[nH]cn1)NC(=O)[C@H](CS)NC(=O)[C@H](CCC(N)=O)NC(=O)[C@H](CCCCN)NC(=O)[C@@H]1CCCN1C(=O)[C@H](Cc1c[nH]cn1)NC(=O)[C@H](Cc1ccccc1)NC(=O)[C@H](CC(N)=O)NC(=O)CNC(=O)[C@H](CC(N)=O)NC(=O)[C@@H](N)CCCNC(=N)N)C(=O)N[C@@H](CC(=O)O)C(=O)NCC(=O)N[C@@H](CCC(N)=O)C(=O)N[C@@H](CCCNC(=N)N)C(=O)NCC(=O)N[C@@H](CCCCN)C(=O)N[C@@H](CS)C(=O)N[C@@H](Cc1c[nH]c2ccccc12)C(=O)O [IM4] (H-RNGNFHPKQCHPALDGQRGKCW-OH; N-terminus and C-terminus assumed)	27±31	1.0 ± 0.1	5.7 ± 0.1**	2.8 ± 1.4	1.2 ± 0.2	7.2±1.7	98.8	
CSCC[C@H](NC(=O)[C@H](CCCCN)NC(=O)[C@H](CS)NC(=O)[C@H](CCC(N)=O)NC(=O)[C@H](CCCCN)NC(=O)[C@H](CC(C)C)NC(=O)[C@H](CC(N)=O)NC(=O)[C@H](Cc1ccc(O)cc1)NC(=O)[C@H](CC(C)C)NC(=O)CNC(=O)[C@H](Cc1c[nH]cn1)NC(=O)[C@@H](N)CCCCN)C(=O)N[C@@H](CO)C(=O)N[C@@H](CC(C)C)C(=O)N[C@@H](CC(N)=O)C(=O)NCC(=O)N[C@@H](CCC(N)=O)C(=O)N[C@@H](CCCNC(=N)N)C(=O)NCC(=O)N[C@@H](CCC(=O)O)C(=O)N[C@@H](CS)C(=O)N[C@@H](Cc1c[nH]c2ccccc12)C(=O)O [IM2]	2±38	1.7 ± 0.2*	3.6 ± 0.1**	1.4 ± 0.3	1.1 ± 0.1	3.0±1.8	99.0	
CSCC[C@H](NC(=O)[C@H](CO)NC(=O)[C@@H](NC(=O)[C@H](CCC(=O)O)NC(=O)[C@H](CS)NC(=O)[C@H](CCC(N)=O)NC(=O)[C@H](CCCNC(=N)N)NC(=O)[C@H](CO)NC(=O)[C@H](Cc1c[nH]cn1)NC(=O)[C@H](Cc1ccc(O)cc1)NC(=O)[C@H](Cc1ccccc1)NC(=O)CNC(=O)[C@H](CC(N)=O)NC(=O)[C@@H](N)CCCCN)[C@@H](C)O)C(=O)N[C@@H](CC(=O)O)C(=O)NCC(=O)N[C@@H](CCC(=O)O)C(=O)N[C@@H](C)C(=O)NCC(=O)N[C@@H](CC(C)C)C(=O)N[C@@H](CS)C(=O)N[C@@H](Cc1c[nH]c2ccccc12)C(=O)O [IM1] (H-KNGFYHSRQCETSMDGEAGLCW-OH; N-terminus and C-terminus assumed)	670±85	1.1 ± 0.1	3.0 ± 0.1**	1.2 ± 0.3	1.1 ± 0.2	1.8±0.4	102.1	
N=C(N)NCCC[C@H](NC(=O)CNC(=O)[C@H](CCCCN)NC(=O)[C@H](CO)NC(=O)[C@@H]1CCCN1C(=O)[C@H](CCCNC(=N)N)NC(=O)[C@H](CS)NC(=O)[C@H](CCC(N)=O)NC(=O)[C@H](CCCCN)NC(=O)[C@H](CCCCN)NC(=O)[C@H](CCCCN)NC(=O)[C@H](Cc1ccc(O)cc1)NC(=O)[C@H](Cc1ccccc1)NC(=O)CNC(=O)[C@H](CCCCN)NC(=O)[C@@H](N)CCCCN)C(=O)N[C@@H](CCCCN)C(=O)N[C@@H](CCCNC(=N)N)C(=O)NCC(=O)N[C@@H](Cc1ccccc1)C(=O)N[C@@H](CS)C(=O)N[C@@H](Cc1c[nH]c2ccccc12)C(=O)O [IM3] (H-KKGFYKKKQCRPSKGRKRGFCW-OH; N-terminus and C-terminus assumed)	6,572±129	28.7 ± 0.7**	6.2 ± 0.2**	24.7 ± 1.6**	32.0 ± 0.7**	100.0±16.8	100.3	62.2** percent
